Assay results published in ChEMBL document CHEMBL1949598, “Synthesis, cytostatic activity and ADME properties of C-5 substituted and N-acyclic pyrimidine derivatives” (Bioorg Med Chem Lett, 2012).
pIC50: −log10 of the molar value. Calls of active or inactive are those of the source. The rule behind the calls is not given here.

How the values were obtained:
[1] = system: MCF7; assay: Cytotoxicity against human MCF7 cells up to 100 uM after 72 hrs by MTT assay; type: functional, cell-based
[2] = system: HCT-116; assay: Cytotoxicity against human HCT116 cells up to 100 uM after 72 hrs by MTT assay; type: functional, cell-based
[3] = system: NCI-H460; assay: Cytotoxicity against human H460 cells up to 100 uM after 72 hrs by MTT assay; type: functional, cell-based
[4] = system: NCI-H460; assay: Cytotoxicity against human H460 cells after 72 hrs by MTT assay; type: functional, cell-based; conditions: NCI-H460, 72 h
[5] = system: MCF7; assay: cells; conditions: Homo sapiens, MCF7, 72 h
Description: Cytotoxicity against human MCF7 cells after 72 hrs by MTT assay

[6] = system: HCT-116; assay: cells; conditions: Homo sapiens, HCT-116, 72 h

SMILES	growth inhibition (GI) [1]	growth inhibition (GI) [2]	growth inhibition (GI) [3]	pIC50 [4]	pIC50 [5]	pIC50 [6]
COc1ncc(CCO)c(OC)n1	inactive	inactive	inactive	–	–	–
O=c1[nH]cc(F)c(=O)[nH]1 [FLUOROURACIL]	–	–	–	5.52	4.85	–
COCn1c(=O)[nH]cc(CCO)c1=O	inactive	inactive	inactive	–	–	–
COc1nc(Cl)ncc1CCO	inactive	inactive	inactive	–	–	–
CC(=O)OCCc1cnc(Cl)nc1Cl	Active	Active	Active	4.51	4.52	4.54
COc1nc(Cl)ncc1CCF	inactive	inactive	inactive	–	–	–
COCn1cc(CCOC(C)=O)c(=O)n(COC)c1=O	inactive	inactive	inactive	–	–	–
COCn1cc(CCO)c(=O)[nH]c1=O	inactive	inactive	inactive	–	–	–
COCn1cc(CCF)c(=O)[nH]c1=O	inactive	inactive	inactive	–	–	–
COc1ncc2c(n1)OCC2	inactive	inactive	inactive	–	–	–
